Laboratory results as given in ChEMBL document CHEMBL1201862, “PubChem BioAssay data set” (2004).
The source made the active and inactive calls.

Columns and labels:
[1] = target: T1, Heat shock factor protein 1 (Mus musculus, UniProt P38532); assay: inhibition of MG132-induced HSE-luciferase signal, confirmation, cell-based, NIH3T3, luminescence, dose retest (AID 2382); format: functional;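 further: NIH3T3 fibroblasts with HSF1-driven luciferase reporter stressed by proteasome inhibitor MG132; luminescence from HSF1-driven luciferase expression after 8 hours of MG132 stress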
T1 sequence (P38532 whole entry): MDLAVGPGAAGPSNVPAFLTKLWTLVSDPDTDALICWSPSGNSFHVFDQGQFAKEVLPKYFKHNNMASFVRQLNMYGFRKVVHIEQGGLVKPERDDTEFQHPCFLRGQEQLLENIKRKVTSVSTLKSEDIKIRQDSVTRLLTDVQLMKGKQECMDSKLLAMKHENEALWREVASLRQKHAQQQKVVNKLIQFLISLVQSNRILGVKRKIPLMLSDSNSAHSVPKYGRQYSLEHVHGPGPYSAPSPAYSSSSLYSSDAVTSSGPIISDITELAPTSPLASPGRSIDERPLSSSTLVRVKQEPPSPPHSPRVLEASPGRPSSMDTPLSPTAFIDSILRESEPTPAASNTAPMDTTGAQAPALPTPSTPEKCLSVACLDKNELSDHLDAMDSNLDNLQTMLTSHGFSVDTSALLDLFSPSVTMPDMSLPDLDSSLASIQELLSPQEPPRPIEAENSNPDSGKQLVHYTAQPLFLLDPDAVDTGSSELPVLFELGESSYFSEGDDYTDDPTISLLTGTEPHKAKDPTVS

Mucolipin-3 = target: T2, Mucolipin-3 (Homo sapiens, UniProt Q8TDD5); assay: Dose response cell-based high-throughput screening assay for agonists of the transient receptor potential channel ML3 (TRPML3). [Related pubchem assays: 1526, 1424, 1448 ]; format: functional
T2 sequence (Q8TDD5 whole entry): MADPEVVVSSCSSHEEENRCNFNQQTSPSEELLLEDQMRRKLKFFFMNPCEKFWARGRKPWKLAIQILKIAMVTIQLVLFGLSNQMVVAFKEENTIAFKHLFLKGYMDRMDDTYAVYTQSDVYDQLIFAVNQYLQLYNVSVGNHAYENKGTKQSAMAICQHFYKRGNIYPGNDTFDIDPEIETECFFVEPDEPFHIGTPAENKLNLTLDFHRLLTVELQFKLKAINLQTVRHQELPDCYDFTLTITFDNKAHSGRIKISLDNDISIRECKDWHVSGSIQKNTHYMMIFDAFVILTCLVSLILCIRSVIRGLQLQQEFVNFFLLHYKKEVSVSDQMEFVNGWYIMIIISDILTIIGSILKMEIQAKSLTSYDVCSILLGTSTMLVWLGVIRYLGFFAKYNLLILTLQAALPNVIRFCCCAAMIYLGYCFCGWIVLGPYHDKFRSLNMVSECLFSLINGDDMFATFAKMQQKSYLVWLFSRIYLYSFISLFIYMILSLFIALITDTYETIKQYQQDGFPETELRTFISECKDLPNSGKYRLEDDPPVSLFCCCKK

Ion channel NompC = Ion channel NompC (Danio rerio, UniProt Q7T1G6); assay: Fluorescence counterscreen assay for TRPML3 agonists: dose response cell-based high-throughput screening assay to identify agonists of the transient receptor potential channel N1 (TRPN1). [Related pubchem assays: 1526, 1424, 1448 ]; format: functional
Aminopeptidase N = target: T3, Aminopeptidase N (Plasmodium falciparum FcB1/Columbia, UniProt O96935); assay: P. falciparum M1AAP inhibitors, biochemical, fluorogenic H-Leu-NHMec substrate, 1536-well (AID 1445); set-up: species or system Plasmodium falciparum 3D7, 3D7
T3 sequence (O96935 whole entry): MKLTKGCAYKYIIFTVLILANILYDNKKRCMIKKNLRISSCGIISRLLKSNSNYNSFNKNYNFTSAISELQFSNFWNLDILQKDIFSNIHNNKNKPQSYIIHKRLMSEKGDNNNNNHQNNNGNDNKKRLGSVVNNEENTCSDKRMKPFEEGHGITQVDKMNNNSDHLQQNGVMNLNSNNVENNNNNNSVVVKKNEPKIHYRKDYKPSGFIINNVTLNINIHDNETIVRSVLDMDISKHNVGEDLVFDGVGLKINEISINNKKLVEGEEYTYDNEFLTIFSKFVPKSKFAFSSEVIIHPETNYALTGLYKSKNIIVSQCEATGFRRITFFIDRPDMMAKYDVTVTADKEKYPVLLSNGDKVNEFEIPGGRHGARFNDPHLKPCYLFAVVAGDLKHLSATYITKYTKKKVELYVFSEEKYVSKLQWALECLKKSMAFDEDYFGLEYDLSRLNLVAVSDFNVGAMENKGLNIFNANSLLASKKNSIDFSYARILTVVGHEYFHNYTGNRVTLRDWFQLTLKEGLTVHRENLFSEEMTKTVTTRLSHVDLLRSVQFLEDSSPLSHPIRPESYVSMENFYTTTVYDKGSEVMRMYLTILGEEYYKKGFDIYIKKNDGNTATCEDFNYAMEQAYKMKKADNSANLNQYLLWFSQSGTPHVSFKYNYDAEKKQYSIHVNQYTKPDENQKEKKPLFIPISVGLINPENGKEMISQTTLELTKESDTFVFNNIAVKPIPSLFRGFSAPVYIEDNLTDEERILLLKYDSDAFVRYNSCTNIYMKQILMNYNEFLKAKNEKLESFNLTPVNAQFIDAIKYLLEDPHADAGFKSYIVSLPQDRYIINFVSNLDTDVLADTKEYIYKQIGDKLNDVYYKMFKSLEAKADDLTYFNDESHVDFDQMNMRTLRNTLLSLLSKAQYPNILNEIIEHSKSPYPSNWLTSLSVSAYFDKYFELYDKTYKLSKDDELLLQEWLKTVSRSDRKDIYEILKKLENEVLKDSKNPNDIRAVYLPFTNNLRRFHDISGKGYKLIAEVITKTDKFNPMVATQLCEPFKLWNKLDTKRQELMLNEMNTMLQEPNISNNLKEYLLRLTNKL

[2] = inhibitors of Bluetongue virus cytopathic effect, confirmation, arbovirus, BSR cells (AID 1250); format: functional;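 further: protection from viral cytopathic effect measured as cell viability by ATP luminescence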
[3] = target: Mothers against decapentaplegic homolog 3 (Homo sapiens, UniProt P84022); assay: SMAD3 transcription factor inhibitors, dose response (AID 715); format: functional
[4] = target: Lysine-specific demethylase 4C (Homo sapiens, UniProt Q9H3R0); assay: GASC-1 (JMJD2C) histone demethylase inhibitors, dose response, biochemical, DELFIA europium, cherry-picked samples (AID 488835); format: functional
[5] = target: T4, Replicative DNA helicase DnaB (Mycobacterium tuberculosis, UniProt P9WMR3); assay: DnaB intein splicing inhibitors, dose response, biochemical, cell-free fluorescence (AID 449749); format: functional
T4 sequence (P9WMR3 whole entry): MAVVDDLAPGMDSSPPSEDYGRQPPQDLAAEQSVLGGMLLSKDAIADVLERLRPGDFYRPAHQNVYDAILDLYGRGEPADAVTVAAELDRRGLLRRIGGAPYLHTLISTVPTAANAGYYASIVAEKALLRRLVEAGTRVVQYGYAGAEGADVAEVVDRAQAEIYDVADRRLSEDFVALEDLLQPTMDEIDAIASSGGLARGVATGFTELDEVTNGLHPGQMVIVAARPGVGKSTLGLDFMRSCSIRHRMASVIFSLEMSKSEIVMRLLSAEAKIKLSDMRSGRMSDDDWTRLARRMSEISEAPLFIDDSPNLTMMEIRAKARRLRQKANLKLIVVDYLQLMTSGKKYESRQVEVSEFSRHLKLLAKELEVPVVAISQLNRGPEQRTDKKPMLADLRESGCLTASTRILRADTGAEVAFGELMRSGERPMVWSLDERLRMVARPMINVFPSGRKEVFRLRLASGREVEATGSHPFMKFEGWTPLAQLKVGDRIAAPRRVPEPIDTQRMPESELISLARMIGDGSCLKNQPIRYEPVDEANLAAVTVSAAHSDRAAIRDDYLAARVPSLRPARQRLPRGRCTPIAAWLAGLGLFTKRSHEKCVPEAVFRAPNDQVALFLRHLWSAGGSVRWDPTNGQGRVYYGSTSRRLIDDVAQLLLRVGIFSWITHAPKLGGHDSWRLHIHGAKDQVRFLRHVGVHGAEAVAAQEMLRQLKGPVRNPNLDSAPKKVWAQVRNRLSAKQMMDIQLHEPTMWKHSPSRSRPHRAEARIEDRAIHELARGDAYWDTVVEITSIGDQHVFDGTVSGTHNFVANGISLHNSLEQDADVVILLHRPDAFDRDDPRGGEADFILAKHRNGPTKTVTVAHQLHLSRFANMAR

Protein RecA = target: T5, Protein RecA (Mycobacterium tuberculosis, UniProt P9WHJ3); assay: Fluorescence Cell-Free Homogeneous Dose Retest to Identify Inhibitors of RecA-Intein Splicing Activity. [Related pubchem assays (depositor defined):AID2097, AID2223, AID489010, AID492950]; format: functional
T5 sequence (P9WHJ3 whole entry): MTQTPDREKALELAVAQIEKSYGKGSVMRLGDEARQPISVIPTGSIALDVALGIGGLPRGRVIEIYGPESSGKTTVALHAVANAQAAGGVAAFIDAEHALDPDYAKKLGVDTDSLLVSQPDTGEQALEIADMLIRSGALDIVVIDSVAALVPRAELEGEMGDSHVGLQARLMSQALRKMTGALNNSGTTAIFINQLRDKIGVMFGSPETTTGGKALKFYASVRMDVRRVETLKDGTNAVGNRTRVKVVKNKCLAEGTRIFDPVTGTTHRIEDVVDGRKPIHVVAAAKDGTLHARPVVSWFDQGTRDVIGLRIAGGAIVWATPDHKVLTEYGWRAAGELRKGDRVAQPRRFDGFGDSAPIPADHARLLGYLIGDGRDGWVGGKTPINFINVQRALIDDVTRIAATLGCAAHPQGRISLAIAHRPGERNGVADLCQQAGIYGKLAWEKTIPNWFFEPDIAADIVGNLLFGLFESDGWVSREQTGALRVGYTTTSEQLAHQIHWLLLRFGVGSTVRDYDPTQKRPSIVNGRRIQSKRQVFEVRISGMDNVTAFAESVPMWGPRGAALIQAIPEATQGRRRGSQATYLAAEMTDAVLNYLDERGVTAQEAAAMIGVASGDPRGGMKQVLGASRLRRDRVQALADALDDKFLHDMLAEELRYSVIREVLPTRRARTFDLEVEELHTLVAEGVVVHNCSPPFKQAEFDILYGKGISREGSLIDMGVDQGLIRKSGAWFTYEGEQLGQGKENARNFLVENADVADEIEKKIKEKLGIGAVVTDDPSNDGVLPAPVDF

[6] = target: Tyrosyl-DNA phosphodiesterase 2 (Homo sapiens, UniProt O95551); assay: human TDP2 enzyme inhibitors, dose response, biochemical, epi absorbance, IC50 (AID 743297)
[7] = enhancers of respiration in Yfh1-depleted yeast, dose response, Friedreich's ataxia, plus single-dose screen (AID 1465); format: functional;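 further: yeast depleted of Yfh1p frataxin homolog grown on glycerol needing respiration; WST-1 tetrazolium dye reduction as measure of cellular dehydrogenase metabolic activity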
cells [8] = format: functional, cell-based
[9] = Luminescence-based counterscreen assay for KLF5 inhibitors: dose response cell-based high throughput screening assay to identify cytotoxic compounds using the IEC-6 intestinal epithelial cell line. [Related pubchem assays: 1700 (Primary screen.), 1834 (Confirmation screen.), 1858 (Summary AID.), 1905 (Counterscreen.)]; format: functional
cells [10] = format: functional, cell-based; remark: listed apart in the source
INS1 = assay: beta cell apoptosis inhibitors, cytokine rescue, dose response, luminescence, retest (AID 449756); format: functional, cell-based; conditions: Rattus norvegicus;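 further: cell death triggered by IL-1 beta plus TNF-alpha plus IFN-gamma mixture; protective hits raise ATP signal compared with cytokine alone wells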
[11] = target: Potassium voltage-gated channel subfamily KQT member 2 (Rattus norvegicus, UniProt O88943); assay: Mode of action assay - current amplitude concentration response for derivatives of ZTZ240, a potentiator of KCNQ2 potassium channels. [Related pubchem assays: 2258 (Summary assay for the KCNQ2 potentiators.), 2239 (Primary HTS assay for KCNQ2 potentiators with 305606 compounds tested, and 1644 are found to be active.)]; format: functional
[12] = target: Metabotropic glutamate receptor 4 (Homo sapiens, UniProt Q14833); assay: Modulation of the Metabotropic Glutamate Receptor mGluR4: Calcium Assay. [Related pubchem assays: 2180, 2199, 2193, 2179, 2182, 2183, 2191, 2181, 2190, 2188, 2185, 2197 ]; format: functional

Lysine-specific demethylase 4C, sequence (Q9H3R0 whole entry): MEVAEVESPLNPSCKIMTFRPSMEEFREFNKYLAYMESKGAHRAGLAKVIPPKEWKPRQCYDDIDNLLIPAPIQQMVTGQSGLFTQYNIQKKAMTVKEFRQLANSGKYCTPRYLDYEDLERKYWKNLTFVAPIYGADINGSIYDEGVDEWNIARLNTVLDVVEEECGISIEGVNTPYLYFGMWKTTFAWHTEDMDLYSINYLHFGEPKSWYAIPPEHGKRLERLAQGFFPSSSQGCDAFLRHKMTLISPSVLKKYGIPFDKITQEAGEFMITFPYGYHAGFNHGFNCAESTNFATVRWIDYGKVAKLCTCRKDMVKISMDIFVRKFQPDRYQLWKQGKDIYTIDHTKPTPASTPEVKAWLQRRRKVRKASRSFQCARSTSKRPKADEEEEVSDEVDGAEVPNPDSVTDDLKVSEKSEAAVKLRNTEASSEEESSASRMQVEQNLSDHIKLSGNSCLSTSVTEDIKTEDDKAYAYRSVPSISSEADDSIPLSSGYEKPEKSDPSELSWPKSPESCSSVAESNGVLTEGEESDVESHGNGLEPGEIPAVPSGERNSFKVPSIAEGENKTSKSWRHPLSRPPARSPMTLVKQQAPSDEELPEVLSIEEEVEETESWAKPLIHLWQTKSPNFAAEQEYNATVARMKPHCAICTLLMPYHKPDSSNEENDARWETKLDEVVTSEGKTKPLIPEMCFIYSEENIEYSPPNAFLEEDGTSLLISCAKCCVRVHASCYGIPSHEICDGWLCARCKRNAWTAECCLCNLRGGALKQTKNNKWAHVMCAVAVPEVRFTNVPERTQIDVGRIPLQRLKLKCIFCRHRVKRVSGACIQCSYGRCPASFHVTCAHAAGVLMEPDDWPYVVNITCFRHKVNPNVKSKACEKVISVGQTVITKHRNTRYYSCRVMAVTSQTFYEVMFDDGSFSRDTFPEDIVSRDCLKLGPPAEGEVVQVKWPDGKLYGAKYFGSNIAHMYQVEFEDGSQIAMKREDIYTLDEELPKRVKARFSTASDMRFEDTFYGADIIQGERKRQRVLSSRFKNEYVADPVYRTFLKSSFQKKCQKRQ
Potassium voltage-gated channel subfamily KQT member 2, sequence (O88943 whole entry): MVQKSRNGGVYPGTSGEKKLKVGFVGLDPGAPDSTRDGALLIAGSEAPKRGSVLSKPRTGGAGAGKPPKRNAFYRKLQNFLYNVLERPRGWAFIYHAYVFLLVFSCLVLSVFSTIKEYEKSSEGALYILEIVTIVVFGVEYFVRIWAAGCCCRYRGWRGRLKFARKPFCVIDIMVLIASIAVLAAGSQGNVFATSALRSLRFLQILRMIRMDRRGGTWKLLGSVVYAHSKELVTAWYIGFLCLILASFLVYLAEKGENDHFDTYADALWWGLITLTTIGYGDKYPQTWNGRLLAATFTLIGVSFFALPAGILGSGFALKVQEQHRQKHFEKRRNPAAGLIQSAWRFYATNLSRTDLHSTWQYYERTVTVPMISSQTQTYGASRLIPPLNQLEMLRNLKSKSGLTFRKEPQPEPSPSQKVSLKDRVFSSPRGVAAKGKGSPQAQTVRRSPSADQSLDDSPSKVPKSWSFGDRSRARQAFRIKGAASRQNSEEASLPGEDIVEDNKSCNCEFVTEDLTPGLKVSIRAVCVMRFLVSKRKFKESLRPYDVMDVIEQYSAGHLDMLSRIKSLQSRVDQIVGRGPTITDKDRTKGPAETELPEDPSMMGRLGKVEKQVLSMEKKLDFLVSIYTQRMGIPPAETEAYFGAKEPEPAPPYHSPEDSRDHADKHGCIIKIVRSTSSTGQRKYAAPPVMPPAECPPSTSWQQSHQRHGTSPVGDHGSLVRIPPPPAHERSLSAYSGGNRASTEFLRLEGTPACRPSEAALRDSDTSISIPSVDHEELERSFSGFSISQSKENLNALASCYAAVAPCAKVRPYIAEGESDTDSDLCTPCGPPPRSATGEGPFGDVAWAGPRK
Ion channel NompC, sequence (Q7T1G6 whole entry): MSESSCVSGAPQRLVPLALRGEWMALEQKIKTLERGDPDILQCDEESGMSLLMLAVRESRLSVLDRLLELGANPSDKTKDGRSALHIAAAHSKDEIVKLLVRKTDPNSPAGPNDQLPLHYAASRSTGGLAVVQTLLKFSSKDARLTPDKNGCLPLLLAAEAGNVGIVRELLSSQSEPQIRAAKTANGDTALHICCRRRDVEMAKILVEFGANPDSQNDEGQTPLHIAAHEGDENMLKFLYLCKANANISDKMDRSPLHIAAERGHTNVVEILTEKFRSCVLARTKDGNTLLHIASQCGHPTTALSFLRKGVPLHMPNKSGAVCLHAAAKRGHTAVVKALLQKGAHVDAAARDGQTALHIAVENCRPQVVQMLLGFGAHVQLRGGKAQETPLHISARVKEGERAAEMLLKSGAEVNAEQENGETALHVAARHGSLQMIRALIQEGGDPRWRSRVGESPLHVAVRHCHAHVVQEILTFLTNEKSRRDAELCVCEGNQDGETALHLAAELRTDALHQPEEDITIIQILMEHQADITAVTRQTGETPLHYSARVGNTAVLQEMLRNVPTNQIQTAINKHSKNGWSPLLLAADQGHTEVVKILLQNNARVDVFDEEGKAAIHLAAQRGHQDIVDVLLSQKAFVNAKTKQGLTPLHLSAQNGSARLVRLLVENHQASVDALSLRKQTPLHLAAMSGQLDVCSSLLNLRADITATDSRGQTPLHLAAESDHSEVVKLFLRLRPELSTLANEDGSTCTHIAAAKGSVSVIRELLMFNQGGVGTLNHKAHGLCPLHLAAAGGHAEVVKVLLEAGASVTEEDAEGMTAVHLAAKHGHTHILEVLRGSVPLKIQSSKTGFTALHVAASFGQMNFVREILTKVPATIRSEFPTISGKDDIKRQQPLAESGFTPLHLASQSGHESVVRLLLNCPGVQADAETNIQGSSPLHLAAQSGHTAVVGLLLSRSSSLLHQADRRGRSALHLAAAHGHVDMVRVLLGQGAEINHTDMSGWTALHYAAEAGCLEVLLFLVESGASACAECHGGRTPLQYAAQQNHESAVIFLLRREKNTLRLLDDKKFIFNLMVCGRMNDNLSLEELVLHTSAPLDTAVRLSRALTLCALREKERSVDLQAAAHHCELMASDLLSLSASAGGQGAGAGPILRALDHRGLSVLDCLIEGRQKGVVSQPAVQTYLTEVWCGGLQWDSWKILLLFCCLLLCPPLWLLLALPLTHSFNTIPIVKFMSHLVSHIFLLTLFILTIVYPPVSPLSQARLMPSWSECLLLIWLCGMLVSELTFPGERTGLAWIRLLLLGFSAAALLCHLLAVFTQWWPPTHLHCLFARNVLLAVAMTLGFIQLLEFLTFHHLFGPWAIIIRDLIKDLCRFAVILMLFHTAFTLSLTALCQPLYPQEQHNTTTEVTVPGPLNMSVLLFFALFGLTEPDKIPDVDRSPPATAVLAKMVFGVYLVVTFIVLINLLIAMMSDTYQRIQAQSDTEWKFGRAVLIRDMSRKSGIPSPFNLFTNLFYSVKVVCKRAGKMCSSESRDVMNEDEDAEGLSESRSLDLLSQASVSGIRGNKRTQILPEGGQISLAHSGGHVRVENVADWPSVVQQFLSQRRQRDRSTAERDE
Mothers against decapentaplegic homolog 3, sequence (P84022 whole entry): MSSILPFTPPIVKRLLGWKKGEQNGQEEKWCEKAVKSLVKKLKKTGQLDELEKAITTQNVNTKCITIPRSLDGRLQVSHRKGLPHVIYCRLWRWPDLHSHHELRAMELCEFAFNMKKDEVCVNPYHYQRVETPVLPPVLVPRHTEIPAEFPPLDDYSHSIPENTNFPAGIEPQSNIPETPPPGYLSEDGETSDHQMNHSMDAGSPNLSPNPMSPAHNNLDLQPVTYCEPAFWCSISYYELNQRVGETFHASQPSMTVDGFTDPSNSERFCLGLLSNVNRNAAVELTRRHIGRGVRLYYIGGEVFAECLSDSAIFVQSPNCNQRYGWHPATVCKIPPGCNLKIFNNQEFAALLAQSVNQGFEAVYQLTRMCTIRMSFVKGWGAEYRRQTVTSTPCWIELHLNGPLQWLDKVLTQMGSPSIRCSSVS
Tyrosyl-DNA phosphodiesterase 2, sequence (O95551 whole entry): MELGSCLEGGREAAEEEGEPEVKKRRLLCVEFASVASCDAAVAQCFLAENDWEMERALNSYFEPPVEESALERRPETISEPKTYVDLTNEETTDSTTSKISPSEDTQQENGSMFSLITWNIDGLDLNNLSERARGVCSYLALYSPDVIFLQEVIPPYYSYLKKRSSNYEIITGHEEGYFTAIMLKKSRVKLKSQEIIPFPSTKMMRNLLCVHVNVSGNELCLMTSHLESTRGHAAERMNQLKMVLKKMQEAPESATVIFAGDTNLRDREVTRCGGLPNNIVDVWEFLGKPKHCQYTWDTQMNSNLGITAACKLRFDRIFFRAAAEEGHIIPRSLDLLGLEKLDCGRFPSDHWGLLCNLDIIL

Compound: Cc1ccc(NC(=O)c2cnc(N3CCN(c4ccccn4)CC3)c3ccccc23)c(Br)c1
- EC50 [1]: 8.67 µM (active)
- EC50 (Mucolipin-3): 4.96 µM (active)
- EC50 (Ion channel NompC): > 29.9 µM (not active)

Compound: CS(=O)(=O)C1=NSC2=NC(=O)/C(=C\c3ccc(-c4ccccc4)o3)C(=N)N21
- IC50 (Aminopeptidase N): 71.1 µM (active)
- IC50 [2]: 36 µM (active)

Compound: CC1(C)CC(=O)C(C2(O)C(=O)NC(=O)NC2=O)=C(O)C1
- IC50 [3]: 2.3 µM (active)
- AC50 [4]: 5.57 µM (active)
- AC50 [5]: 1.23 µM (active)
- EC50 (Protein RecA): 2.23 µM (active)
- IC50 [6]: 14.5 µM (inactive)

Compound: CCOc1ccc(N=Nc2c(=O)[nH]n3c(C)cc(C)nc23)cc1
- EC50 [7]: > 100 µM (active)

Compound: O=C(N/N=C/c1cc(Br)ccc1OC(=O)c1ccc(Br)cc1)c1ccncc1
- EC50 (cells [8]): 20 µM (active)
- IC50 [9]: 5.99 µM (active)
- EC50 (cells [10]): 121 µM (active)
- AC50 (INS1): 2.29 µM (active)

Compound: O=C(Nc1ccc(Cl)nc1)c1ccc(F)c(F)c1
- EC50 [11]: 14.4 µM (active)

Compound: COc1nc(NC(=O)c2ccccn2)ccc1Cl
- EC50 [12]: 6.4 µM (active)
